This passage reports GI50 and TGI results from PubChem BioAssay (NCI).

Some test systems named below: RXF 393 renal; SK-MEL-2 melanoma; HL-60(TB) leukemia; SF-295 CNS; SK-MEL-28 melanoma; MDA-MB-231 breast; SNB-75 CNS; UACC-62 melanoma; HT29 colon; ACHN renal.
What all share (test): NCI tumour cell line growth inhibition, 48 h

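Exposure lasted 48 hours, with cells grown in 96-well plates and compounds tested at five concentrations. GI50: concentration for 50% inhibition of growth. TGI marks complete inhibition of growth.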

On to `COc1ccc(C#CC2=C(c3cc(OC)c(OC)c(OC)c3)C(=O)OC2)cc1`, for which the GI50 is 6.77 µM in the assay with RXF 393 renal; 42.5 µM in the assay with SK-MEL-2 melanoma; 4.48 µM with HL-60(TB) leukemia; 1.75 µM in the assay on SF-295 CNS; 9.28 µM in the assay with SK-MEL-28 melanoma; 32 µM with MDA-MB-231 breast. The GI50 in the assay with SNB-75 CNS was 1.33 µM; in the assay with UACC-62 melanoma, 5.23 µM; in the assay on HT29 colon it was 2.66 µM; in the assay with ACHN renal, 5.89 µM. Also, the TGI in the assay on RXF 393 renal was 26.7 µM; in the assay on SK-MEL-2 melanoma, greater than 50 µM; in the assay with HL-60(TB) leukemia it was greater than 50 µM; with SF-295 CNS, 43.5 µM; with SK-MEL-28 melanoma, greater than 50 µM; in the assay on MDA-MB-231 breast, greater than 50 µM. The TGI is greater than 50 µM in the assay with SNB-75 CNS, 18.4 µM with UACC-62 melanoma, greater than 50 µM with HT29 colon and 25.3 µM in the assay on ACHN renal.

On to `Cc1cc(S(N)(=O)=O)c(S/C(=N\Nc2ccc([N+](=O)[O-])cc2)c2ccc3ccccc3c2)cc1Cl`, for which the GI50 is 8.69 µM in the assay on RXF 393 renal; greater than 100 µM in the assay with SK-MEL-2 melanoma; greater than 100 µM in the assay on HL-60(TB) leukemia; 20 µM in the assay with SF-295 CNS; 35.1 µM in the assay with SK-MEL-28 melanoma; 13.4 µM with MDA-MB-231 breast. The GI50 is 56.7 µM in the assay on SNB-75 CNS, 15.6 µM in the assay on UACC-62 melanoma, 73.2 µM in the assay on HT29 colon and 17 µM in the assay on ACHN renal. The TGI is 54.8 µM with RXF 393 renal; greater than 100 µM with SK-MEL-2 melanoma; greater than 100 µM in the assay with HL-60(TB) leukemia; 66.2 µM in the assay on SF-295 CNS; greater than 100 µM in the assay on SK-MEL-28 melanoma; 29.6 µM in the assay on MDA-MB-231 breast. The TGI is greater than 100 µM in the assay on SNB-75 CNS, 28.9 µM with UACC-62 melanoma, greater than 100 µM with HT29 colon and 30.7 µM in the assay on ACHN renal.

For `COc1ccc(Oc2cc(NCCC(F)(F)F)c3ncc(-c4ccc(C(=O)NC5CC5)c(C)c4)n3n2)c(F)c1F`, the GI50 in the assay with RXF 393 renal is 0.425 µM; in the assay with SK-MEL-2 melanoma, 0.552 µM; in the assay with HL-60(TB) leukemia, 2.22 µM; with SF-295 CNS it was 0.638 µM; in the assay on SK-MEL-28 melanoma it was 4.94 µM; with MDA-MB-231 breast, 2.16 µM. Besides, the GI50 in the assay with SNB-75 CNS is 1.61 µM; with UACC-62 melanoma it was 0.681 µM; in the assay on HT29 colon, 0.506 µM; with ACHN renal it was 0.304 µM. Moreover, the TGI with RXF 393 renal is 31.9 µM; in the assay with SK-MEL-2 melanoma, 26.6 µM; in the assay with HL-60(TB) leukemia, greater than 100 µM; in the assay with SF-295 CNS it was greater than 65.3 µM; in the assay with SK-MEL-28 melanoma, 59.1 µM; in the assay with MDA-MB-231 breast it was greater than 100 µM. The TGI with SNB-75 CNS was 31.1 µM; in the assay on UACC-62 melanoma, 85.5 µM; in the assay on HT29 colon it was greater than 100 µM; with ACHN renal it was 30.2 µM.

With `C#C/C=C/CC1OC(C(Br)CC)CC(Br)C2CC1O2` (stereo not given), the TGI with RXF 393 renal, in the assay on SK-MEL-2 melanoma, with HL-60(TB) leukemia, in the assay on SF-295 CNS, with SK-MEL-28 melanoma and with MDA-MB-231 breast was greater than 100 µM each time. Also, the TGI in the assay with SNB-75 CNS, in the assay on UACC-62 melanoma, in the assay on HT29 colon and in the assay on ACHN renal was greater than 100 µM throughout.

For `CC(C)(C)OC(=O)NCCCCCCCCCCn1c2c(c3ccccc3c1=O)C(=O)c1ccccc1-2`, the GI50 with RXF 393 renal was 13 µM; in the assay with SK-MEL-2 melanoma, 21.1 µM; with HL-60(TB) leukemia it was 32.6 µM; in the assay with SF-295 CNS, 30.9 µM; with SK-MEL-28 melanoma it was greater than 100 µM; in the assay with MDA-MB-231 breast, 17.9 µM. In addition, the GI50 in the assay with SNB-75 CNS is 5.92 µM; in the assay with UACC-62 melanoma, 43.9 µM; in the assay on HT29 colon, greater than 100 µM; with ACHN renal, 18.5 µM. Moreover, the TGI with RXF 393 renal is 37.4 µM; in the assay with SK-MEL-2 melanoma, 49.7 µM; in the assay with HL-60(TB) leukemia it was greater than 100 µM; in the assay on SF-295 CNS, greater than 100 µM; with SK-MEL-28 melanoma it was greater than 100 µM; in the assay on MDA-MB-231 breast it was 85.9 µM. Besides, the TGI is 28.6 µM in the assay on SNB-75 CNS, greater than 100 µM with UACC-62 melanoma, greater than 100 µM with HT29 colon and 66 µM in the assay with ACHN renal.

Take `CNC(=O)c1cc2c(Oc3ccc(NC(=S)NC(=O)Cc4ccccc4)cc3F)ccnc2cc1OC`: the GI50 in the assay on RXF 393 renal is 2.02 µM; in the assay with SK-MEL-2 melanoma it was greater than 29.9 µM; with HL-60(TB) leukemia, greater than 100 µM; with SF-295 CNS, 0.196 µM; in the assay on SK-MEL-28 melanoma, greater than 100 µM; in the assay on MDA-MB-231 breast it was 3.87 µM. Besides, the GI50 was 0.183 µM in the assay on SNB-75 CNS, 3.43 µM in the assay with UACC-62 melanoma, 3.16 µM with HT29 colon and 3.5 µM with ACHN renal. The TGI was 6.55 µM with RXF 393 renal; greater than 100 µM in the assay with SK-MEL-2 melanoma; greater than 100 µM in the assay with HL-60(TB) leukemia; greater than 100 µM in the assay with SF-295 CNS; greater than 100 µM in the assay on SK-MEL-28 melanoma; greater than 100 µM with MDA-MB-231 breast. The TGI in the assay with SNB-75 CNS is 4.68 µM; in the assay on UACC-62 melanoma, greater than 100 µM; in the assay on HT29 colon it was greater than 100 µM; with ACHN renal, greater than 100 µM.

Turning to `Cc1ncc(-c2ccnc(Nc3ccc(S(C)(=O)=O)cc3)n2)n1C(C)C`, the GI50 in the assay on RXF 393 renal is 0.211 µM; with SK-MEL-2 melanoma it was 1.38 µM; with HL-60(TB) leukemia, 1.06 µM; with SF-295 CNS, 1.67 µM; in the assay on SK-MEL-28 melanoma it was 1.28 µM; in the assay with MDA-MB-231 breast, 1.88 µM. For the same compound, the GI50 with SNB-75 CNS was 0.377 µM; in the assay with UACC-62 melanoma, 1.45 µM; in the assay with HT29 colon, 1.29 µM; in the assay with ACHN renal, 0.603 µM. Besides, the TGI was 0.678 µM with RXF 393 renal; 3.17 µM with SK-MEL-2 melanoma; 4.64 µM with HL-60(TB) leukemia; 6.75 µM in the assay with SF-295 CNS; greater than 5.69 µM in the assay with SK-MEL-28 melanoma; greater than 9.48 µM in the assay on MDA-MB-231 breast. Further, the TGI in the assay with SNB-75 CNS was 2.58 µM; with UACC-62 melanoma, 3.64 µM; in the assay with HT29 colon it was greater than 10 µM; in the assay with ACHN renal, greater than 9.54 µM.
